What all share (type): functional
The subject of assay [1] is Mycobacterium tuberculosis. Nature of the assay: Antimycobacterial activity against multidrug-resistant Mycobacterium tuberculosis isolate A-2-6 by agar proportion method.
Assay [2] relates to Mycobacterium tuberculosis. Nature of the assay: Antimycobacterial activity against multidrug-resistant Mycobacterium tuberculosis isolate U-4-6 by agar proportion method.
The test system of assay [3] is Mycobacterium tuberculosis. The assay can be described thus: Antimycobacterial activity against multidrug-resistant Mycobacterium tuberculosis isolate N-4-11 by agar proportion method.
Assay [4] deals with Mycobacterium tuberculosis. Nature of the assay: Antimycobacterial activity against isoniazid, rifampicin-resistant Mycobacterium tuberculosis isolate A-2-3 by agar proportion method.
Assay [5] deals with Mycobacterium tuberculosis. Nature of the assay: Antimycobacterial activity against multidrug-resistant Mycobacterium tuberculosis isolate N-5-2 by agar proportion method.
Assay [6] concerns Mycobacterium tuberculosis. Nature of the assay: Antimycobacterial activity against multidrug-resistant Mycobacterium tuberculosis isolate K-3-6 by agar proportion method.
The subject of assay [7] is Mycobacterium tuberculosis. The assay can be described thus: Antimycobacterial activity against isoniazid, streptomycin-resistant Mycobacterium tuberculosis isolate A-4-25 by agar proportion method.
Assay [8] relates to Mycobacterium tuberculosis. The assay can be described thus: Antimycobacterial activity against multidrug-resistant Mycobacterium tuberculosis isolate P-4-11 by agar proportion method.
The test system of assay [9] is Mycobacterium tuberculosis. Nature of the assay: Antimycobacterial activity against rifampicin-resistant Mycobacterium tuberculosis isolate A-2-4 by agar proportion method.
Assay [10] relates to Mycobacterium tuberculosis. The assay can be described thus: Antimycobacterial activity against multidrug-resistant Mycobacterium tuberculosis isolate Q-4-1 by agar proportion method.
Assay [11] concerns Mycobacterium tuberculosis. Nature of the assay: Antimycobacterial activity against streptomycin-resistant Mycobacterium tuberculosis isolate A-4-8 by agar proportion method.
In assay [12] the test system is Mycobacterium tuberculosis. The assay can be described thus: Antimycobacterial activity against isoniazid-resistant Mycobacterium tuberculosis isolate A-2-1 by agar proportion method.
For assay [13], the system named is Mycobacterium tuberculosis. The assay can be described thus: Antimycobacterial activity against isoniazid, rifampicin-resistant Mycobacterium tuberculosis isolate J-1-19 by agar proportion method.
Assay [14] deals with Mycobacterium tuberculosis. The assay can be described thus: Antimycobacterial activity against multidrug-resistant Mycobacterium tuberculosis isolate U-2-15 by agar proportion method.
Assay [15] relates to Mycobacterium tuberculosis. The assay can be described thus: Antimycobacterial activity against streptomycin-resistant Mycobacterium tuberculosis isolate A-3-47 by agar proportion method.
For assay [16], the system named is Mycobacterium tuberculosis. The assay can be described thus: Antimycobacterial activity against multidrug-resistant Mycobacterium tuberculosis isolate P-1-50 by agar proportion method.
Assay [17] deals with Mycobacterium tuberculosis. Nature of the assay: Antimycobacterial activity against multidrug-resistant Mycobacterium tuberculosis isolate Z-1-4 by agar proportion method.
Assay [18] concerns Mycobacterium tuberculosis. Nature of the assay: Antimycobacterial activity against multidrug-resistant Mycobacterium tuberculosis isolate M-1-32 by agar proportion method.
In assay [19] the test system is Mycobacterium tuberculosis. Nature of the assay: Antimycobacterial activity against multidrug-resistant Mycobacterium tuberculosis isolate R-1-38 by agar proportion method.

One compound from ChEMBL document CHEMBL1156113, “Synthesis of new sugar derivatives and evaluation of their antibacterial activities against Mycobacterium tuberculosis” (Bioorg Med Chem Lett, 2009) can be followed below.

Structures are written as SMILES. ≈ marks a conversion by molar mass, not a printed value.

`CC(=O)N[C@@H]1[C@@H](O)[C@H](O)[C@@H](CO)O[C@H]1SC(=S)N(C)C`: the minimal inhibitory concentration (MIC) in [1] was determined as 6.25 µg/mL (≈ 19.3 µM); in [2], 6.25 µg/mL (≈ 19.3 µM); in assay [3], 6.25 µg/mL (≈ 19.3 µM); in assay [4], 3.12 µg/mL (≈ 9.62 µM); in assay [5] it was 1.56 µg/mL (≈ 4.81 µM); in [6], 6.25 µg/mL (≈ 19.3 µM). The MIC in assay [7], in assay [8], in [9], in assay [10], in assay [11] and in [12] was 6.25 µg/mL (≈ 19.3 µM) in each case. The minimum inhibitory concentration (MIC) in assay [13] worked out at 6.25 µg/mL (≈ 19.3 µM); in [14], 3.12 µg/mL (≈ 9.62 µM); in assay [15], 6.25 µg/mL (≈ 19.3 µM); in assay [16], 6.25 µg/mL (≈ 19.3 µM); in [17], 6.25 µg/mL (≈ 19.3 µM); in [18] it was 6.25 µg/mL (≈ 19.3 µM). The same compound yielded a minimal inhibitory concentration (MIC) in [19] of 6.25 µg/mL (≈ 19.3 µM).

A word on the MIC: it is the least concentration at which growth counts as inhibited. The low end stands for inhibition by little substance, the high end for a need for much substance.
